Measurements: ChEMBL document CHEMBL1201862, “PubChem BioAssay data set” (2004)
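Interpolation was linear, between the two tested concentrations surrounding the appropriate level; five concentrations were tested over 48 hours in 96-well plates. GI50 is the concentration that inhibits growth by half.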 The source made the active and inactive calls. No stated cut-off is given here; in the data, active = GI50 up to about 1.1 µM and inactive = higher.

Tests used:
Assay in all cases: growth of human tumour cells (NCI), 48 h
DLD-1 = tested on: DLD-1
DMS-114 = tested on: DMS-114
DMS-273 = tested on: DMS-273
HOP-18 = tested on: HOP-18
KM-20L2 = tested on: KM-20L2
LXFL 529 = tested on: LXFL 529
SNB-78 = tested on: SNB-78
XF498 = tested on: XF498
RXF 631 = tested on: RXF 631

SMILES | GI50 (DLD-1) | GI50 (DMS-114) | GI50 (DMS-273) | GI50 (HOP-18) | GI50 (KM-20L2) | GI50 (LXFL 529) | GI50 (SNB-78) | GI50 (XF498) | GI50 (RXF 631)
O=C1c2ccccc2C(=O)c2c(NCCNCCO)ccc(O)c21 | 3.33 µM (inactive) | 4.59 µM (inactive) | 2.22 µM (inactive) | 9.27 µM (inactive) | 2.94 µM (inactive) | 3.69 µM (inactive) | 4.61 µM (inactive) | 4.89 µM (inactive) | –
C/C=C/C=C/[C@H]1Cc2cc(O)cc(O)c2O1 | 82 µM (inactive) | 22.6 µM (inactive) | 28.9 µM (inactive) | > 100 µM (inactive) | 62.4 µM (inactive) | 27.4 µM (inactive) | > 100 µM (inactive) | 46.5 µM (inactive) | 62.4 µM (inactive)
CN(N=O)C(=O)N[C@H]1C(O)O[C@H](CO)[C@@H](O)[C@@H]1O (stereo partly drawn) | 632 µM (inactive) | 504 µM (inactive) | 528 µM (inactive) | 222 µM (inactive) | > 750 µM (inactive) | > 750 µM (inactive) | 545 µM (inactive) | 557 µM (inactive) | –
C=CCC(OCCOCC)c1cc(OCCOCC)ccc1OC (stereo not drawn) | – | – | > 100 µM (inactive) | – | – | > 100 µM (inactive) | > 100 µM (inactive) | > 100 µM (inactive) | –
CCOc1ccc(NCC2CC/C(=C\c3ccccc3OC)C2=O)cc1 (stereo not drawn) | 3.09 µM (inactive) | 9.71 µM (inactive) | 2.58 µM (inactive) | 15.3 µM (inactive) | 14 µM (inactive) | 2.56 µM (inactive) | 16.5 µM (inactive) | – | 23.8 µM (inactive)
COc1ccc(/N=N/c2c(N)nn(C)c2N)cc1 | > 100 µM (inactive) | > 100 µM (inactive) | > 100 µM (inactive) | 92.3 µM (inactive) | > 100 µM (inactive) | > 100 µM (inactive) | > 100 µM (inactive) | – | > 100 µM (inactive)
[O-][S+]1c2ccccc2N=C(c2cccc3ccccc23)CC1c1cccc2ccccc12 (stereo not drawn) | 18.4 µM (inactive) | 16.5 µM (inactive) | 29.6 µM (inactive) | 12.2 µM (inactive) | 36.3 µM (inactive) | 17.5 µM (inactive) | 39 µM (inactive) | 20.6 µM (inactive) | 36.4 µM (inactive)
O=C1[C@H]2ON(c3ccccc3)C(c3ccc(Cl)cc3)[C@H]2C(=O)N1c1ccc(Cc2ccc(N3C(=O)[C@@H]4ON(c5ccccc5)C(c5ccc(Cl)cc5)[C@@H]4C3=O)cc2)cc1 (stereo partly drawn) | > 100 µM (inactive) | > 100 µM (inactive) | > 100 µM (inactive) | > 100 µM (inactive) | > 100 µM (inactive) | 94.8 µM (inactive) | > 100 µM (inactive) | – | > 100 µM (inactive)
O=c1[nH]c(=O)n(C2CC(O)C(CO)O2)cc1C#Cc1cc(F)cc(F)c1 (stereo not drawn) | > 100 µM (inactive) | > 100 µM (inactive) | > 100 µM (inactive) | 24.7 µM (inactive) | > 10 µM (inactive) | > 100 µM (inactive) | > 100 µM (inactive) | > 100 µM (inactive) | > 100 µM (inactive)
O=C1C=CC2(C=C1)C[C@H](NC(=O)OCc1ccccc1)C(=O)O2 | 5.53 µM (inactive) | 20.3 µM (inactive) | 18.3 µM (inactive) | 16.7 µM (inactive) | 19 µM (inactive) | 12.1 µM (inactive) | 24.5 µM (inactive) | 17.8 µM (inactive) | 19.6 µM (inactive)
COc1ccc2cc1Oc1ccc(cc1)CC1c3cc4c(cc3CCN1C)Oc1c(OC)cc3c(c1O4)C(C2)N(C)CC3 (stereo not drawn) | 2.96 µM (inactive) | – | 1.63 µM (inactive) | – | 2.55 µM (inactive) | 2 µM (inactive) | 17.6 µM (inactive) | 1.94 µM (inactive) | 4.99 µM (inactive)
O=C(OCc1nc2ccc(Br)cc2c(=O)n1-c1ccccc1)c1ccccc1O | 67.1 µM (inactive) | – | – | – | > 100 µM (inactive) | 35.4 µM (inactive) | > 100 µM (inactive) | 51.4 µM (inactive) | –
N#Cc1c(-c2ccco2)cc(-c2ccc(NCc3nc4ccccc4[nH]3)cc2)nc1N | 28.8 µM (inactive) | – | 18 µM (inactive) | 24.4 µM (inactive) | – | 17.9 µM (inactive) | – | – | –
CCCC(Sc1ccccc1)P(=O)(c1ccccc1)c1ccccc1 (stereo not drawn) | 19.6 µM (inactive) | 34.8 µM (inactive) | 36.6 µM (inactive) | – | > 100 µM (inactive) | – | 37.6 µM (inactive) | – | 30.1 µM (inactive)
COC(=O)c1nc(C(=O)OC)c2c([nH]c3ccccc32)c1C(=O)OC | 65.6 µM (inactive) | 49.3 µM (inactive) | 60 µM (inactive) | < 0.01 µM (active) | – | 74.5 µM (inactive) | > 100 µM (inactive) | 35.2 µM (inactive) | –
C1CN2CCO[SiH](O1)OCC2 | > 100 µM (inactive) | > 100 µM (inactive) | > 100 µM (inactive) | > 100 µM (inactive) | > 100 µM (inactive) | > 100 µM (inactive) | > 100 µM (inactive) | – | –
Cn1c2cc(O)cc(O)c2c(=O)c2c([N+](=O)[O-])cccc21 | > 100 µM (inactive) | > 100 µM (inactive) | > 100 µM (inactive) | > 100 µM (inactive) | > 100 µM (inactive) | > 100 µM (inactive) | > 100 µM (inactive) | – | > 100 µM (inactive)
[O-][S+]1Cc2ccccc2CS1 (stereo not drawn) | 16.7 µM (inactive) | – | 14.2 µM (inactive) | 33 µM (inactive) | 25.3 µM (inactive) | 15.1 µM (inactive) | 14.7 µM (inactive) | 17.9 µM (inactive) | 48.9 µM (inactive)
COc1ccc2[nH]c3c(c2c1)[C@H](C)C[C@@H]1C(=O)N(c2ccccc2)C(=O)[C@H]31 | 43.3 µM (inactive) | 33.8 µM (inactive) | 37.8 µM (inactive) | 20.9 µM (inactive) | 62.8 µM (inactive) | 29.6 µM (inactive) | – | 24.5 µM (inactive) | 20.5 µM (inactive)
CC(C)CS(=O)(=O)/C(=C(\c1ccc(Br)cc1)S(=O)(=O)CC(C)C)c1ccc(Br)cc1 | > 100 µM (inactive) | – | > 100 µM (inactive) | > 100 µM (inactive) | > 100 µM (inactive) | > 100 µM (inactive) | 97.7 µM (inactive) | > 100 µM (inactive) | > 100 µM (inactive)
CCOC(=O)NC(=O)c1cn(CCCOC(=O)CCCCCCCCCCC(=O)OCCCn2cc(C(=O)NC(=O)OCC)c(=O)n(C)c2=O)c(=O)n(C)c1=O | > 100 µM (inactive) | > 100 µM (inactive) | > 100 µM (inactive) | > 100 µM (inactive) | – | > 100 µM (inactive) | > 100 µM (inactive) | > 100 µM (inactive) | –
CS(=O)(=O)c1c(N)c2nc(Cl)cn2c2nc3ccccc3nc12 | > 100 µM (inactive) | > 100 µM (inactive) | > 100 µM (inactive) | – | > 100 µM (inactive) | > 100 µM (inactive) | > 100 µM (inactive) | > 100 µM (inactive) | > 100 µM (inactive)
CCOC(=O)/C(I)=C/c1cc(OC)c(OC)c(OC)c1 | 6.03 µM (inactive) | 2.92 µM (inactive) | 6.68 µM (inactive) | 11.6 µM (inactive) | 3.21 µM (inactive) | 10.4 µM (inactive) | 28.2 µM (inactive) | 2.92 µM (inactive) | –
CCCCCC(/C=C/[C@@H]1[C@H]2CC(=O)O[C@H]2C[C@H]1N1CCOCC1)OC1CCCO1 (stereo partly drawn) | > 100 µM (inactive) | > 100 µM (inactive) | > 100 µM (inactive) | > 100 µM (inactive) | > 100 µM (inactive) | > 100 µM (inactive) | > 100 µM (inactive) | – | –
O=C(C#Cc1cnc(O)nc1O)c1ccccc1 | 11.3 µM (inactive) | 15.1 µM (inactive) | 14.9 µM (inactive) | 15.7 µM (inactive) | – | – | 10.4 µM (inactive) | – | 14 µM (inactive)
COc1ccc(/C=C2\CCC(CCN(C)C)(C3=CCCC3)C2=O)cc1Br (stereo not drawn) | 5.13 µM (inactive) | 4.32 µM (inactive) | 3.78 µM (inactive) | 12.4 µM (inactive) | 1.59 µM (inactive) | 4.71 µM (inactive) | 9.02 µM (inactive) | 3.24 µM (inactive) | 14.7 µM (inactive)
